Test results as given in US11819499B2, “Single-dose, ready-to-use injectable formulations” (BioSplice Therapeutics, Inc., priority 2016, dated 2023).

What was measured:
Type in all cases: physicochemical
[1] = Dynamic vapor sorption (DVS) scan; conditions: at 90% RH
Source text: The purity of the Form 13 sample was 98.8%; the KF of an undried Form 13 sample was 35.7%.

[2] = Exposure to relative humidity / air followed by XRD
Source text: FIGS. 15A-15D are scans of Form 1 in the presence of increasing relative humidity (RH), an example of a non-stoichiometric or stoichiometric hydrate of polymorph Form 1 of the compound of Formula (I). FIG. 15A is an x-ray powder diffraction scan of Form 1 exposed to 10% RH as the anhydrous Form 1. FIG. 15B is an x-ray powder diffraction scan of Form 1 exposed to 20% RH as a partial hydrate of Form 1. FIG. 15C is an x-ray powder diffraction scan of Form 1 exposed to 30% RH as a hydrate of Form 1 (≈10-12% water uptake). FIG. 15D is an x-ray powder diffraction scan of Form 1 exposed to 90% RH as a full hydrate of Form 1 (≈17-20% water uptake). […] The hydrate lost its water below 30% RH. […] The crystal lattice of Form 1 expanded when water was sorbed, giving rise to XRD peaks at ˜5, ˜7 and ˜11 degrees while maintaining the main XRD pattern. The hydrates of Form 1 of a compound of Formula (I) (Form 11) were fully reversible, and lost water when exposed to % RH of less than 20%, turning Form 11 to hydrated forms of Form 1 and to the anhydrous Form 1. Solvates 1 and 2 solids were exposed to air overnight, and then analyzed by XRD. After the analysis, the solids were dried at 50° C. under vacuum, and then analyzed by XRD again.

[3] = Drying or heating in a DSC chamber followed by XRD (form conversion)
Description: The Form 1 solid was dried at 75° C. under vacuum overnight, and XRD, DSC, and TGA scans were performed. […] However, the DSC scans indicated the absence of endotherm. The loss of the early peak on the DSC scan had no effect on the XRD trace, showing that the wide endotherm between 50-100° C. on DSC scan was due to the free solvent.
The Form 1 solid was heated in a DSC chamber to 305° C. (past the endotherm/exotherm around 280° C.), and then scanned by XRD. […] It can be concluded that the endotherm/exotherm around 280° C. might be due to melting/crystallization events.
The Form 2 solid was heated in a DSC machine to 90° C. (past the wide endotherm between 50-100° C.); to 270° C. (past the endotherm/exotherm around 240° C.); and finally to 330° C. (past the […]). The residual solid was analyzed by XRD. […] The wide endotherm between 50-100° C. might be free solvent or hydrate. […] Thus, the exotherm around 290° C. was a re-crystallization event. According to an XRD and DSC overlay, the behavior of Form 2* was similar to Form 2.
This has been confirmed for Forms 1 and 2.
Form 13 solid was heated in a DSC chamber to 170° C. (past the endotherm between 50-100° C.), and then scanned by XRD. […] It can be concluded that the endotherm between 50-100° C. is due to bonded water.
Form 13 solid was heated in a DSC chamber to 330° C. (past the endotherm/exotherm around 300° C.), and then scanned by XRD. […] It can be concluded that the endotherm/exotherm is due to melting/crystallization events.

[4] = Exposure to relative humidity / air followed by XRD; remark: listed apart in the source
[5] = Reslurry experiments (polymorph screen) in 39 pure and binary solvents at RT and 50° C. for 5 days, XRD of wet and dry samples
Description: Reslurry experiments in various solvents were performed. Approximately 30-80 mg of the starting solid (a non-stoichiometric or stoichiometric hydrate of Form 1 having between 1% and about 20% by weight water) was slurried in 39 different solvents (pure and binary solvents; the ratio of organic solvent/water (V/V) was 95%/5%) at RT and 50° C. for 5 days. Three solvates, one hydrate, and eleven non-solvated forms were identified. […] XRD of both wet and dry samples were scanned (FIG. 12A (dry sample)).
The slurry experiments identified 3 solvated forms from wet samples (Solvates 1, 2, and 3); 2 non-stoichiometric hydrates of Form 1 (Forms 12 and 13); and 11 non-solvated forms (Forms 1-11). In some instances, similar XRD scans with minor differences were obtained. These were considered to be part of the same class (e.g., the same form). For example, XRD scans of Form 2 and Form 2* were similar and were considered to belong to the same class. The solvated forms were obtained from wet sample analysis; after drying, the sample indicated a different XRD.
Solvate 1 was obtained from acetone at RT, and after drying, a low crystallinity solid was generated. Solvate 2 was obtained from acetone (at RT) and acetone/water (at RT), and after drying, Form 4** was generated. Solvate 3 was obtained from EtOH/water at RT, and after drying, Form 2 was generated.

[6] = Competitive slurry experiments between polymorph forms (15 forms mixed, 3-5 days, XRD); conditions: water at RT and 50° C.
Description: In order to find out the thermodynamic stability between the different forms, several competitive slurry experiments were carried out. Form 1, Form 2, Form 2*, Form 3, Form 4, Form 4*, Form 4**, Form 5, Form 7, Form 8, Form 9, Form 10, Form 11, Form 11*, and Form 13 (10 mg for each) was mixed and slurried in 2 mL of solvent at both RT and 50° C. The solids were slurried for 3-5 days and then analyzed by XRD.

[7] = Solubility of the starting solid by the gravimetric method; conditions: at RT and at 50° C. in all solvents tested except DMF and DMSO
[8] = reslurry in Acetonitrile/water (5% water), 50° C.
[9] = reslurry in DCM/water (5% water), 50° C.
[10] = reslurry in DCM/water (5% water), RT
[11] = reslurry in Heptane/water (5% water), 50° C.
[12] = reslurry in Heptane/water (5% water), RT
[13] = reslurry in IPAc/water (5% water), 50° C.
[14] = reslurry in MA/water (5% water), RT
[15] = reslurry in MIBK/water (5% water), 50° C.
[16] = reslurry in MeOH/water (5% water), 50° C.
[17] = reslurry in MtBE/water (5% water), 50° C.
[18] = reslurry in Toluene/water (5% water), 50° C.
[19] = reslurry in Toluene/water (5% water), RT
[20] = reslurry in n-Butanol/water (5% water), 50° C.
[21] = reslurry in n-Butanol/water (5% water), RT
[22] = reslurry in n-Butyl acetate/water (5% water), 50° C.
[23] = reslurry in n-Butyl acetate/water (5% water), RT

CC(C)CC(=O)Nc1cncc(-c2ccc3[nH]nc(-c4nc5c(-c6cccc(F)c6)cncc5[nH]4)c3c2)c1 [Form 1, N-(5-(3-(7-(3-fluorophenyl)-3H-imidazo[4,5-c]pyridin-2-yl)-1H-indazol-5-yl)pyridin-3-yl)-3-methylbutanamide]
water absorption (DVS scan) [1]: 17%
water uptake ([2]; exposed to 30% RH (FIG. 15C), hydrate of Form 1): 10-12%
water uptake ([2]; exposed to 90% RH (FIG. 15D), full hydrate of Form 1): 17-20%
form when exposed to air ([2]; exposed to air): converts to Form 13
XRD after drying ([3]; dried at 75° C. under vacuum overnight): no change
form after heating (XRD) ([3]; heated in a DSC chamber to 305° C.): converted to Form 9
form when heated to just before melting ([3]; heated to just before melting at 364° C.): convert to Form 9
RH above which Form 1 tended to convert to hydrate of Form 1 (Form 13) [4]: above 4050%

CC(C)CC(=O)Nc1cncc(-c2ccc3[nH]nc(-c4nc5c(-c6cccc(F)c6)cncc5[nH]4)c3c2)c1 [Form 13, N-(5-(3-(7-(3-fluorophenyl)-3H-imidazo[4,5-c]pyridin-2-yl)-1H-indazol-5-yl)pyridin-3-yl)-3-methylbutanamide]
water absorption (DVS scan) [1]: 17%
Dry (form by XRD) [5, 8]: Form 13
Wet (form by XRD) [5, 8]: Form 13
Dry (form by XRD) ([5]; reslurry in DCM, 50° C.): Form 13
Wet (form by XRD) ([5]; reslurry in DCM, 50° C.): Form 13
Dry (form by XRD) [5, 9]: Form 1
Wet (form by XRD) [5, 9]: Form 13
Dry (form by XRD) [5, 10]: Form 1
Wet (form by XRD) [5, 10]: Form 13
Dry (form by XRD) ([5]; reslurry in Heptane, 50° C.): Form 13
Wet (form by XRD) ([5]; reslurry in Heptane, 50° C.): Form 13
Dry (form by XRD) [5, 11]: Form 1
Wet (form by XRD) [5, 11]: Form 13
Dry (form by XRD) [5, 12]: Form 12
Wet (form by XRD) [5, 12]: Form 13
Dry (form by XRD) [5, 13]: Form 13
Wet (form by XRD) [5, 13]: Form 13
Dry (form by XRD) [5, 14]: Form 1
Wet (form by XRD) [5, 14]: Form 13
Dry (form by XRD) [5, 15]: Form 1
Wet (form by XRD) [5, 15]: Form 13
Dry (form by XRD) ([5]; reslurry in MeOH, RT): Form 1
Wet (form by XRD) ([5]; reslurry in MeOH, RT): Form 13
Dry (form by XRD) [5, 16]: Form 13
Wet (form by XRD) [5, 16]: Form 13
Dry (form by XRD) [5, 17]: Form 13
Wet (form by XRD) [5, 17]: Form 13
Dry (form by XRD) [5, 18]: Form 13
Wet (form by XRD) [5, 18]: Form 13
Dry (form by XRD) [5, 19]: Form 1
Wet (form by XRD) [5, 19]: Form 13
Dry (form by XRD) [5, 20]: Form 1
Wet (form by XRD) [5, 20]: Form 13
Dry (form by XRD) [5, 21]: Form 13
Wet (form by XRD) [5, 21]: Form 13
Dry (form by XRD) [5, 22]: Form 1
Wet (form by XRD) [5, 22]: Form 13
Dry (form by XRD) [5, 23]: Form 12
Wet (form by XRD) [5, 23]: Form 13
Dry (form by XRD) ([5]; reslurry in water, 50° C.): Form 13
Wet (form by XRD) ([5]; reslurry in water, 50° C.): Form 13
Dry (form by XRD) ([5]; reslurry in water, RT): Form 1
Wet (form by XRD) ([5]; reslurry in water, RT): Form 13
thermodynamic stability between forms (competitive slurry) [6]: most stable
RH below which the hydrate lost its water ([2]; relative humidity): below 30%
form after heating (XRD) ([3]; heated in a DSC chamber to 170° C.): converted to Form 1
form after heating (XRD) ([3]; heated to 330° C.): converted to Form 9
form upon drying ([3]; upon drying): converted to Form 1

CC(C)CC(=O)Nc1cncc(-c2ccc3[nH]nc(-c4nc5c(-c6cccc(F)c6)cncc5[nH]4)c3c2)c1 [starting solid, N-(5-(3-(7-(3-fluorophenyl)-3H-imidazo[4,5-c]pyridin-2-yl)-1H-indazol-5-yl)pyridin-3-yl)-3-methylbutanamide]
Solubility (in words) [7]: low solubility
